Reference: US4091006A, “Esters of 3-hydroxyindone compounds” (priority 1975, dated 1978)
Converted amounts (≈) assume the structure as drawn.

Columns and labels:
[1] = system: egg forms of the two-spotted mite; assay: Fumigant toxicity, Method 2 (treated plants near untreated infested plants); format: in vivo; details: 500 ppm dip, 4 days
Experimental: (§1) Two methods were used to evaluate fumigant properties:
Method 2: Excised bean plants infested with egg forms of the two-spotted mite were dipped in an aqueous preparation (500 ppm) of the test compound. The treated plants were transferred to 250 ml. Erlenmeyer flasks containing 100 ml. of tap water. Four flasks holding treated plants were evenly spaced around a similar flask in which were placed untreated mite-infested plants so that the leaves of the treated foliage were in close proximity (1-3 inches) to the untreated plants. Four days later mortality determinations were made.

[2] = system: Perennial rye grass, crabgrass, red root pigweed, mustard; assay: Preliminary Herbicide Seed Germination Test; details: each rated 1 (no injury) to 5 (no seedlings emerged)
From the text: The thus-prepared stock suspension contained 0.5 percent by weight of compound. The test concentrations employed in the tests described hereinbelow were obtained by diluting the stock suspension with water. The test procedures were as follows:
The following seeds were used in this test:
Crabgrass -- Digitaria san-
Mustard -- Brassica pincea var.
Each of above mixtures is rolled separately in 5 gallon containers for approximately one-half hour on ball mill to insure uniform mixing of seeds and soil. For each compound four 3-inch pots are filled with soil to within 11/2 inches of top of pots. To 2 of these pots are added 70 cc. of Mixture I. To the remaining 2 pots are added 70 cc. of Mixture II. The seed-soil mixture is tamped firmly, and the pots are removed to the greenhouse and watered lightly. About 2 hours after planting, 25 milliliters of the test formulation were added to each of 2 pots for each soil-seed mixture; i.e., one replicate of each seed mixture per concentration. An equal volume of a water solution containing acetone and an emulsifier in the same concentration as the herbicidal mixture but without the candidate herbicide is also added to each of the soil-seed mixtures. These pots are used as check or control units. The test compounds are formulated by standard procedure of solution in acetone, addition of an emulsifier, and dilution with water. Tests were conducted on all compositions at low concentration (100 ppm.). Certain compositions were also tested at high concentration (1000 ppm). The pots were held in the greenhouse and watered lightly until results were taken. Ten to twelve days after application of chemical, injury is noted for each species by comparing treated vs. untreated pots. Ratings are made at both the high and the low concentrations (1000 ppm and 100 ppm) according to the following designations:
4 = few seedlings emerged and/or very severe stunting
3 = moderate reduction in stand and/or moderate stunting
2 = very slight reduction in stand and/or slight stunting
1 = no injury; seedlings appear no different with respect to stand or growth than untreated controls
Accordingly, the maximum rating for one test seed species tested at both high and low concentration is 10 and the maximum possible total preemergence rating is 40 (10 for each of the four test seed species). […] In some tests the crabgrass experiment was omitted. In these tests the maximum total rating for species tested at both high and low concentrations is 30 and 15 for species tested only at low concentrations.

[3] = system: Bean; assay: Phytotoxicity, bean; details: 2500 ppm, 10 days
Experimental: (§5) Experiments were also conducted to determine the phytotoxicity of representative enol ester compositions with respect to healthy fresh plants. […] The test plants were sprayed in accordance with the procedure described above for the Mite Foliage Spray Test so as to deliver approximately 100 milliliters of test solution to the leaves of each plant tested. The sprayed plants and controls were set aside for approximately 1 hour to allow the solutions to dry and were then placed in the greenhouse. After 10 days the plants were visually inspected to determine the extent of foliage injury. A rating of 1 indicates no perceptible injury; 5 indicates the plant was dead and ratings of 2, 3 and 4 indicate intermediate degrees of injury based upon the number and extent to which leaves were injured.

[4] = system: Corn; assay: Phytotoxicity, corn; details: 2500 ppm, 10 days
Experimental: as §5

[5] = system: Cotton; assay: Phytotoxicity, cotton; details: 2500 ppm, 10 days
Experimental: as §5

[6] = system: eggs of the two-spotted mite; assay: Fumigant toxicity, Method 1 (deposit in pie plate); format: in vivo; details: deposit approx. 160 μg per square cm, 4 days
Experimental: as §1
Method 1: Fifty mg. of each compound were dissolved in 5 ml. of acetone and poured into a 20 cm. (bottom diameter) Pyrex No. 210 pie plate. The acetone was allowed to evaporate leaving a deposit of approximately 160 μg. per square cm. The plate was then placed in the bottom of a 50 pound metal lard container (about 30 cm. in diameter and 34 cm. high). Two excised bean plants, held in a 250 ml. Erlenmeyer flask containing 100 ml. of tap water and infested with eggs of the two-spotted mite, were placed in the center of the pie plate. The container was held in the insectary (temperature 80±5° F., 50±5% R. H.) for four days before mortality determinations were made.

[7] = system: egg of the two-spotted mite; assay: Mite Ovicide Test; format: in vivo, Tetranychus urticae (Koch); details: spray on eggs, 4 days
From the text: (§2) The test procedures were as follows:
The plants were allowed to dry thoroughly.
(§3) Compositions were rated on the basis of percent kill with a rating of 1 indicating no mortality; 3 signifying an approximately 50% mortality and 5 indicating 100% mortality at the indicated dosage.

[8] = system: Tomato; assay: Phytotoxicity, tomato; details: 2500 ppm, 10 days
Experimental: as §5

[9] = system: adults and nymphal stages of the two-spotted mite; assay: Mite Foliage Spray Test; format: in vivo, Tetranychus urticae (Koch); details: 4 days
From the text: as §2, §3

[10] = system: Mite Adults; assay: whole plant or invertebrate; details: for LC50: Tetranychus urticae, read-out: Mite Adults LD50
Experimental: Adults and nymphal stages of the two-spotted mite (tetranychus urticae (Koch)), reared on Tendergreen bean plants at 80±5° F. and 50±5 percent relative humidity, were the test organisms. Infested leaves from a stock culture were placed on the primary leaves of two bean plants 6 to 8 inches in height, growing in a 21/2 inch clay pot. 150-200 Mites, a sufficient number for testing, transferred from the excised leaves to the fresh plants in a period of 24 hours. Following the 24 hour transfer period, the excised leaves were removed from the infested plants. The test compounds were formulated by diluting the stock suspension with water to provide suspensions containing the desired amount of test compound per million parts of final formulation. The potted plants (one pot per compound) were placed on a revolving turntable and sprayed with 100-110 milliliters of test compound formulation by use of a DeVilbis spray gun set at 40 psi. air pressure. This application, which lasted 30 seconds, was sufficient to wet the plants to run-off. As a control, 100-110 milliliters of a water solution containing acetone and emulsifier in the same concentrations as the test compound formulation, but containing no test compound, were also sprayed on infested plants. The sprayed plants were held at 80±5° F. and 50±5 percent relative humidity for 4 days, after which, a mortality count of motile forms was made. Microscopic examination for motile forms was made on the leaves of the test plants. Any individual which was capable of locomotion upon prodding was considered living.
(§4) Side by side comparison tests were conducted to determine the effectiveness of selected enol ester compounds relative to (bis(p-chlorophenyl)trichlorethanol) a miticide sold under the trademark Kelthane and ovex (p-chlorophenyl-p-chlorobenzene sulfonate) two widely used commercial miticides.

[11] = system: Mite Ova; assay: whole plant or invertebrate; details: for LC50: Tetranychus urticae, read-out: Mite Ova LD50; for Mite Ova LD95: concentration to kill 95 percent
Experimental: The test organism was the egg of the two-spotted mite (Tetranychus urticae (Koch)), as obtained from adults reared on Tendergreen bean plants under controlled conditions of 80±5° F. and 50±5 percent relative humidity. Heavily infested leaves from a stock culture were placed on the primary leaves of two bean plants 6 to 8 inches in height, growing in a 21/2 inch clay pot. Females were allowed to oviposit for a period of 48 hours and then the leaves of the infested plants were dipped in a solution containing 800 parts of tetraethyl pyrophosphate per million parts of water in order to destroy the reproductory forms and thus prevent further egg laying. […] The plants were allowed to dry thoroughly. […] The potted plants (one pot per compound) were placed on a revolving turntable and sprayed with 100-110 milliliters of test compound formulation by use of a DeVilbis spray gun set at 40 psig. air pressure. This application, which lasted 30 seconds, was sufficient to wet the plants to run-off. As a control, 100-110 milliliters of a water solution containing acetone and emulsifier in the same concentrations as the test compound formulation, but containing no test compound, were also sprayed on plants infested with eggs. The sprayed plants were held at 80±5° F. and 50±5 percent relative humidity for 4 days, after which a microscopic examination was made of unhatched (dead) and hatched (living) eggs.
as §4

[12] = rating/maximum 15: 100 ppm only, crabgrass omitted
[13] = rating/maximum 40: 100 and 1000 ppm, four species, 10-12 days
[14] = rating/maximum 20: 100 ppm only, four species

Row | Compound | Fumigant Toxicity Method 2 [1] | Herbicide (total preemergence rating) [2, 12] | Phytotoxicity Rating, Bean [3] | Phytotoxicity Rating, Corn [4] | Phytotoxicity Rating, Cotton [5] | Fumigant Toxicity Method 1 [6] | Mite Ova rating [7] | Phytotoxicity Rating, Tomato [8] | Mite Adult rating [9] | Herbicide (total preemergence rating) [2, 13] | Herbicide (total preemergence rating) [2, 14] | LC50 [10] | Mite Adults LD95 ([10]; concentration to kill 95 percent) | LC50 [11] | Mite Ova LD95 [11]
1 | Cc1cc(C)c(C2=C(OC(=O)CCCCl)c3ccccc3C2=O)c(C)c1 [2-(2',4',6'-Trimethylphenyl)-3-(4-chlorobutyryloxy)indone] | 1 | 14/15 | 1 | 2 | 2 | 1 | 5 (100% mortality) | 2 | 5 (100% mortality) |  |  |  |  |  | 
2 | Cc1cc(C)c(C2=C(OC(=O)C3CCCCC3)c3ccccc3C2=O)c(C)c1 [2-(2',4',6'-Trimethylphenyl)-3-(cyclohexanoyloxy)indone] | 1 |  | 1 | 1 | 2 | 1 | 5 (100% mortality) | 2 | 5 (100% mortality) | 31/40 |  |  |  |  | 
3 | Cc1cc(C)c(C2=C(OC(=O)CC3C=CCC3)c3ccccc3C2=O)c(C)c1 (stereo not shown) [2-(2',4',6'-Trimethylphenyl)-3-(cyclopent-2-en-1-ylacetoxy)indone] | 1 | 11/15 | 1 | 1 | 2 | 1 | 5 (100% mortality) | 1 | 5 (100% mortality) |  |  |  |  |  | 
4 | CCCCCCCCCCCCOC(=O)OC1=C(c2c(C)cc(C)cc2C)C(=O)c2ccccc21 [2-(2',4',6'-Trimethylphenyl)-3-(dodecyloxycarbonyloxy)indone] | 1 |  | 1 | 2 | 1 | 1 | 5 (100% mortality) | 1 | 5 (100% mortality) |  | 17/20 |  |  |  | 
5 | Cc1cc(C)c(C2=C(OC(=O)C3CC4C=CC3C4)c3ccccc3C2=O)c(C)c1 (stereo not drawn) [2-(2',4',6'-Trimethylphenyl)-3-(endo-exonorborn-5-en-2-carbonyloxy)indone] | 1 | 11/15 | 1 | 1 | 2 | 1 | 5 (100% mortality) | 1 | 5 (100% mortality) |  |  |  |  |  | 
6 | Cc1cc(C)c(C2=C(OC(=O)C(C)C)c3ccccc3C2=O)c(C)c1 [2-(2',4',6'-Trimethylphenyl)-3-(isobutyryloxy)indone] | 5 (80-100% control) |  | 1 | 4 | 2 | 5 (80-100% control) | 5 (100% mortality) | 2 | 5 (100% mortality) | 37/40 |  |  |  |  | 
7 | COCC(=O)OC1=C(c2c(C)cc(C)cc2C)C(=O)c2ccccc21 [2-(2',4',6'-Trimethylphenyl)-3-(methoxyacetoxy)indone] | 1 | 15/15 | 1 | 1 | 1 | 1 | 5 (100% mortality) | 1 | 5 (100% mortality) |  |  |  |  |  | 
8 | CCCCCCCCCCCCCCCCCC(=O)OC1=C(c2c(C)cc(C)cc2C)C(=O)c2ccccc21 [2-(2',4',6'-Trimethylphenyl)-3-(octadecanoyloxy)indone] | 1 |  | 1 | 1 | 1 | 1 | 5 (100% mortality) | 1 | 5 (100% mortality) |  | 19/20 |  |  |  | 
9 | CCCCCCCCSC(=O)OC1=C(c2c(C)cc(C)cc2C)C(=O)c2ccccc21 [2-(2',4',6'-Trimethylphenyl)-3-(octylthiocarbonyloxy)indone] | 1 | 11/15 | 1 | 1 | 1 | 1 | 5 (100% mortality) | 1 | 5 (100% mortality) |  |  |  |  |  | 
10 | CCC(=O)OC1=C(c2c(C)cc(C)cc2C)C(=O)c2ccccc21 [2-(2',4',6'-Trimethylphenyl)-3-(propionyloxy)indone] | 5 (80-100% control) |  | 1 | 2 | 1 | 5 (80-100% control) | 5 (100% mortality) | 2 | 5 (100% mortality) | 32/40 |  |  |  |  | 
11 | CC=CCCCCCCCC(=O)OC1=C(c2c(C)cc(C)cc2C)C(=O)c2ccccc21 [2-(2',4',6'-Trimethylphenyl)-3-(undec-9-enoyloxy)indone] | 1 |  | 2 | 2 | 1 | 1 | 5 (100% mortality) | 2 | 5 (100% mortality) |  | 19/20 |  |  |  | 
12 | OC(c1ccc(Cl)cc1)(c1ccc(Cl)cc1)C(Cl)(Cl)Cl [Kelthane, bis(p-chlorophenyl)trichlorethanol] |  |  |  |  |  |  |  |  |  |  |  | 20 µg/mL (≈ 54 µM) | 65 ppm | 370 µg/mL (≈ 999 µM) | 700 ppm
13 | O=S(=O)(Oc1ccc(Cl)cc1)c1ccc(Cl)cc1 [Ovex, p-chlorophenyl-p-chlorobenzene sulfonate, reference compound] |  |  |  |  |  |  |  |  |  |  |  | 1000 µg/mL |  | 200 µg/mL | 300 ppm
